Experimental data from US6727237B2, “Inhibitors of bacterial NAD synthetase” (priority 1998, dated 2004).
Several values for one entry are separate records, joined by “and”; a condition that tells them apart may be missing. Identical values can stand only once.

Key:
[1] = tested on: Staphylococcus epidermitis; assay: Bacterial growth inhibition screen in LB media (absorbance 595 nm), percent inhibition; conditions: for % Inhibition: S. epidermitis
[2] = target: T1, bacterial NAD synthetase enzyme (Bacillus subtilis, UniProt P08164); assay: biochemical; assay type: biochemical
T1 sequence (P08164 2-272 limits assumed): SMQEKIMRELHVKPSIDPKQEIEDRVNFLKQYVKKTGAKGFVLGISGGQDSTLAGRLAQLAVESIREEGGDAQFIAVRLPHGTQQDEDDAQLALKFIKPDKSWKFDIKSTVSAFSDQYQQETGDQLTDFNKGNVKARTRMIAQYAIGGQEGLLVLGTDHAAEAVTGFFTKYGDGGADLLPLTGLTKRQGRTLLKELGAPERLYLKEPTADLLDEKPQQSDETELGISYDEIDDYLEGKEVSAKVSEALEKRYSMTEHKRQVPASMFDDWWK

[3] = compound at 0.2 mM (Table 312A)

Row | SMILES | % Inhibition ([1]; concentration screened 100 uM) [%] | % Inhibition [2, 3] [%] | % Inhibition ([1]; concentration screened 10 uM) | other results
1 | Fc1ccc2[nH]c(CCCCC[n+]3ccc4ccccc4c3)cc2c1 [Compound 560] | 98.43 | 46.91 |  | 
2 | Cc1ccc2[nH]c(CCCCCC[n+]3cccc4ccccc43)cc2c1 [Compound 405] |  | 6.07 | 44.01% | 
3 | COc1ccc2[nH]c(CCCCC[n+]3ccc4ccccc4c3)cc2c1 [Compound 590] | 94.43 | 28.82 |  | 
4 | c1ccc(Oc2ccc3[nH]c(CCCCC[n+]4ccc5ccccc5c4)cc3c2)cc1 [Compound 566] | 98.21 | 29.72 |  | 
5 | Fc1cc(F)c2[nH]c(CCC[n+]3cccc4ccccc43)cc2c1 [Compound 408] |  | 7.04 | 1.88% | 
6 | CCCCc1ccc2[nH]c(CCCCC[n+]3cccc4ccccc43)cc2c1 [Compound 422] |  | 16.23 | 9.82% | 
7 | O=C(c1ccccc1)c1ccc2[nH]c(CCCCCC[n+]3ccc4ccccc4c3)cc2c1 [Compound 573] |  | 26.24 | 16.09% | 
8 | CC(=O)c1ccc2[nH]c(CCCCC[n+]3cccc4ccccc43)cc2c1 [Compound 476] |  | 17.49 | 11.14% | 
9 | O=[N+]([O-])c1cc([N+](=O)[O-])c2[nH]c(CCCCC[n+]3ccc4ccccc4c3)cc2c1 [Compound 524] | 99.57 | 30.81 |  | 
10 | O=[N+]([O-])c1ccc2c(ccn2CCCCCCO)c1 [Compound 862, 6-[N-(5-nitroindolyl)]hexan-1-ol] |  | 9.05 | 48.29% | 
11 | c1ccc(Oc2ccc3[nH]c(CCCCCCC[n+]4ccc5ccccc5c4)cc3c2)cc1 [Compound 568] |  | 18.95 | 3.10% | 
12 | O=[N+]([O-])c1ccc2[nH]c(CCCCCC[n+]3ccccc3)cc2c1 [Compound 333] | 100.00 |  |  | % Inhibition ([2]; compound at 0.1 mM (Table 314)): 26.29%
13 | C[n+]1cccc(C(=O)OCCCCCCn2ccc3cc([N+](=O)[O-])ccc32)c1 [Compound 865] | 94.40 | 46.43 | 50.42% and 48.55% | 
14 | c1ccc2[nH]c(CCCCCCC[n+]3cccc4ccccc43)cc2c1 [Compound 394] |  | 4.62 | 7.03% | 
15 | c1ccc(C(c2ccccc2)(c2ccccc2)c2ccc3[nH]c(CCC[n+]4cccc5ccccc54)cc3c2)cc1 [Compound 444] |  |  | 5.85% | % Inhibition ([2]; compound at 0.1 mM (Table 314)): 8.55%
16 | c1cc[n+](CCCCCCc2cc3ccccc3[nH]2)cc1 [Compound 285] | 98.57 | 32.45 |  | 
17 | c1ccc(-c2ccc3[nH]c(CCCCC[n+]4ccc5ccccc5c4)cc3c2)cc1 [Compound 542] | 96.93 | 15.89 |  | 
18 | O=C(c1ccccc1)c1ccc2[nH]c(CCCC[n+]3ccccc3)cc2c1 [Compound 355] |  | 2.08 | 5.78% | % Inhibition ([2]; compound at 0.1 mM (Table 314)): 3.31%
19 | Fc1cc(F)c2[nH]c(CCCCCC[n+]3cccc4ccccc43)cc2c1 [Compound 411] |  | 8.84 | 15.74% | 
20 | CC(C)c1ccc2[nH]c(CCC[n+]3cccc4ccccc43)cc2c1 [Compound 426] |  |  | 16.57% | % Inhibition ([2]; compound at 0.1 mM (Table 314)): 5.49%
21 | O=C(OCCCCCCCCc1cc2cc(Oc3ccccc3)ccc2[nH]1)C(c1ccccc1)c1ccccc1 [Compound 659] | 20.41 | 25.47 |  | 
22 | O=C(c1ccccc1)c1ccc2[nH]c(CCCCCC[n+]3cccc4ccccc43)cc2c1 [Compound 465] |  | 7.92 | 8.08% | 
23 | Fc1ccc2[nH]c(CCCCCCCC[n+]3cccc4ccccc43)cc2c1 [Compound 455] |  | 2.69 | 6.55% | 
24 | c1ccc(C(c2ccccc2)(c2ccccc2)c2ccc3[nH]c(CCCCCCCC[n+]4cccc5ccccc54)cc3c2)cc1 [Compound 449] |  | 8.67 | 7.73% | 
25 | COC(=O)c1ccc2[nH]c(CCCCC[n+]3ccccc3)cc2c1 [Compound 380] | 97.64 | 10.09 |  | 

Row | SMILES | % Inhibition ([1]; concentration screened 100 uM) [%] | % Inhibition [2, 3] [%] | % Inhibition ([1]; concentration screened 10 uM) | other results
26 | Fc1ccc2[nH]c(CCCCC[n+]3cccc4ccccc43)cc2c1 [Compound 452] |  | 20.04 | 8.22% | 
27 | c1ccc(C(c2ccccc2)(c2ccccc2)c2ccc3[nH]c(CCCCC[n+]4cccc5ccccc54)cc3c2)cc1 [Compound 446] |  | 13.78 | 3.69% | 
28 | O=C(OCCCCCCCCc1cc2cc(C(F)(F)F)ccc2[nH]1)C(c1ccccc1)c1ccccc1 [Compound 653] | 8.42 | 20.59 |  | 
29 | COc1ccc2[nH]c(CCCC[n+]3ccccc3)cc2c1 [Compound 373] |  | 14.13 | 1.53% | % Inhibition ([2]; compound at 0.1 mM (Table 314)): 7.72%
30 | CCCCc1ccc2[nH]c(CCCCCC[n+]3ccc4ccccc4c3)cc2c1 [Compound 531] |  | 36.55 | 8.77% | 
31 | Cc1ccc2[nH]c(CCCCCC[n+]3ccc4ccccc4c3)cc2c1 [Compound 513] | 17.86 | 23.66 |  | 
32 | CC(C)c1ccc2[nH]c(CCCCCCCC[n+]3cccc4ccccc43)cc2c1 [Compound 431] |  | 10.77 | 22.28% | 
33 | O=[N+]([O-])c1ccc2[nH]c(CCC[n+]3cccc4ccccc43)cc2c1 [Compound 438] |  | 9.45 | 5.29% | 
34 | CC(=O)c1ccc2[nH]c(CCCCCCCOC(=O)C(c3ccccc3)c3ccccc3)cc2c1 [Compound 670] |  |  | 5.59% | % Inhibition ([2]; compound at 0.1 mM (Table 314)): 4.65%
35 | CC(=O)c1ccc2[nH]c(CCCCOC(=O)c3cccnc3)cc2c1 [Compound 672] |  | 2.63 | 1.57% | 
36 | FC(F)(F)c1ccc2cc(CCCCC[n+]3ccc4ccccc4c3)[nH]c2c1 [Compound 506] | 98.64 | 21.74 |  | 
37 | O=C(O)c1ccc2[nH]c(CCCCC[n+]3ccccc3)cc2c1 [Compound 386] | 96.36 | 28.75 |  | 
38 | c1ccc(-c2ccc3[nH]c(CCCCCC[n+]4ccccc4)cc3c2)cc1 [Compound 327] | 100.00 |  |  | % Inhibition ([2]; compound at 0.1 mM (Table 314)): 55.31%
39 | CC(C)c1ccc2[nH]c(CCCCCC[n+]3ccc4ccccc4c3)cc2c1 [Compound 537] |  | 10.69 | 5.43% | 
40 | CC(C)c1ccc2[nH]c(CCCCCC[n+]3ccccc3)cc2c1 [Compound 321] | 100.00 |  |  | % Inhibition ([2]; compound at 0.1 mM (Table 314)): 37.25%
41 | CC(=O)c1ccc2[nH]c(CCCCCCCC[n+]3ccc4ccccc4c3)cc2c1 [Compound 587] | 100.00 | 56.47 |  | 
42 | FC(F)(F)c1ccc2[nH]c(CCCCCCC[n+]3ccccc3)cc2c1 [Compound 364] |  | 29.20 | 2.16% | 
43 | CC(C)c1ccc2[nH]c(CCCCCCCC[n+]3ccc4ccccc4c3)cc2c1 [Compound 539] |  | 16.80 | 4.67% | 
44 | COC(=O)c1ccc[n+](CCCCn2ccc3cc([N+](=O)[O-])ccc32)c1 [Compound 9] |  | 28.02 | 31.80% | 
45 | Fc1ccc2[nH]c(CCC[n+]3cccc4ccccc43)cc2c1 [Compound 450] |  | 7.90 | 7.45% | 
46 | c1ccc2c[n+](CCCCCCCCc3cc4ccccc4[nH]3)ccc2c1 [Compound 503] |  | 37.04 | 7.82% | 
47 | C[n+]1cccc(C(=O)OCCCCn2ccc3cc(OCc4ccccc4)ccc32)c1 [Compound 765] |  |  |  | inhibition of growth at 10 µM ([1]; Staphylococcus, read-out: % Inhibition, S. epidermitis, concentration screened 10 uM): 9.31%; inhibition at 100 µM [2]: 90%; IC50 ([2]; lead compounds (Table 318A), read-out: IC 50): 90 µM
48 | O=C(O)c1ccc2[nH]c(CCCCCC[n+]3ccc4ccccc4c3)cc2c1 [Compound 603] |  | 51.72 | 1.60% | 
49 | c1ccc(Oc2ccc3[nH]c(CCCCC[n+]4cccc5ccccc54)cc3c2)cc1 [Compound 458] |  | 15.72 | 22.77% | 
50 | c1ccc(-c2ccc3[nH]c(CCC[n+]4cccc5ccccc54)cc3c2)cc1 [Compound 432] |  | 13.21 | 8.91% | 
